In US20140356343A1, “COMPOSITION FOR TREATING PARKINSON'S DISEASE” (priority 2011, published 2014):
Where two headings read alike, the source gives them in different places. No end group written: not given here.

Test system: unilateral 6-hydroxydopamine (6-OHDA) lesioned rat
Type: in vivo, Male Sprague-Dawley rats
Conditions: for effect on onset of rotational action of apamin: given with apamin
From the text: The potential antiparkinsonian activity of apitoxin (bee venom; Alyostal®), and certain of its constituents such as apamin, melittin, hyaluronidase, and others were investigated in the standard, unilateral 6-hydroxydopamine (6-OHDA) lesioned rat model, in animals responding to an apomorphine challenge, according to the method previously described with minor modifications (Oh J D, Chartisathian K, Ahmed S M, and Chase T N. (2003) J of Neurosci. Res. 72, 768-780, Oh J D, Chartisathian K, Chase T N and Butcher L L, (2000) Brain Res. 853, 174-185, Oh J D and Chase T N. (2002) Amino Acids 23, 133-139, Oh J D, Del Dotto P, Chase T N. (1997) Neurosci Lett. 228, 5-8, Oh J D, Geller A I, Zhang G, Chase T N. (2003) Br. Res. 971, 18-30, Oh J D, Russell D, Vaughan C L and Chase T N. (1998) Br. Res. 813, 150-159.). Conventional anti-parkinsonian dopamine (DA) agonists, apomorphine, amphetamine, and L-dopa were used as comparator drugs. Control animals received vehicle, phosphate buffered saline (PBS). Rotation (turning) behavior in response to drug challenge was used as a predictor of anti-parkinson activity. All compounds or vehicle were administered either subcutaneously (s.c.) or intraperitonealy (i.p.).
The anti-parkinson activity of various test substances was studied as previously described 1-6. Male Sprague-Dawley rats weighing approximately 300 g were housed with free access to food and water. Under […] (50 mg/kg, i.p.), the nigrostriatal pathway was unilaterally lesioned by administering 6-OHDA HCl (8 μg in 4 μL of saline with 0.02% ascorbate) into the left medial forebrain bundle (AP −5.0, L 1.3, V 8.0 from the dura mater). Following surgery, rats were challenged with apomorphine (0.1 mg/kg, s.c.), to confirm the lesion of nigro-striatal pathway. Rats that responded to apomorphine were kept for further testing.
Rats received test drugs, comparator drugs, or vehicle on post-surgical Week 3 following 6-OHDA lesioning and subsequently for additional […] (Week 4-10 post-surgery).
Rotation behavior was measured by placing rats in a rotometer and measuring turning behavior over 5-minute periods (5-min bins). To measure rotation behavior, each animal was placed at least 10 minutes prior to the drug or vehicle administration into a rotometer and turning was measured. Animals then received test drugs, and turning behavior was measured as described above for 4 to 12 hours post-drug administration.

[1] = Melittin 0.5 to 3 mg/kg with apamin 0.5 to 1.0 mg/kg
[2] = Melittin alone, dose range 1-3 mg/kg
[3] = Hyaluronidase alone, dose range 10 to 30 mg/kg
[4] = PL-A2 alone, approximately 2 and 3 mg/kg i.p.
[5] = Phospholipase A2 alone, dose range 2 to 3 mg/kg

CC(C)C[C@@H]1NC(=O)[C@H](C)NC(=O)[C@H]([C@@H](C)O)NC(=O)[C@H](CCC(=O)O)NC(=O)[C@@H]2CCCN2C(=O)[C@H](C)NC(=O)[C@H](CCCCN)NC(=O)[C@@H]2CSSC[C@@H](C(=O)N[C@@H](CCC(N)=O)C(=O)N[C@@H](CCC(N)=O)C(=O)N[C@@H](Cc3cnc[nH]3)C(N)=O)NC(=O)[C@H](CCCNC(=N)N)NC(=O)[C@H](CCCNC(=N)N)NC(=O)[C@H](C)NC(=O)[C@H](CSSC[C@H](N)C(=O)N[C@@H](CC(N)=O)C(=O)N2)NC1=O [Apamin, apamin]
Atypical Motor Behaviors (Apamin 0.5 mg/kg alone): None
Atypical Motor Behaviors (Apamin 1 mg/kg alone): Mild
Atypical Motor Behaviors (dose at which seen) (apamin alone): ≧1.5 mg/kg
doses at which abnormal motor behaviors increasingly interfered with normal and rotatory motor behaviors (apamin alone): 1.5 to 3.0 mg/kg
doses at which abnormal motor behaviors were clinically insignificant (apamin alone): 0.75 to 1.50 mg/kg
dose at which atypical motor behavior began to appear (apamin alone, tremors, dystonic postures, alterations in muscular tone, locomotor incoordination): about 1.5 mg/kg
therapeutic index compared with apitoxin (motoric response, apamin alone): lower therapeutic index

CN1CCc2cccc3c2[C@H]1Cc1ccc(O)c(O)c1-3 [Apomorphine, apomorphine, reference compound]
effect on apamin-induced contralateral rotations (apomorphine co-administration at less than standard dose, 0.005 mg/kg s.c.): mildly potentiate

CC[C@H](C)[C@H](NC(=O)CN)C(=O)NCC(=O)N[C@@H](C)C(=O)N[C@H](C(=O)N[C@@H](CC(C)C)C(=O)N[C@@H](CCCCN)C(=O)N[C@H](C(=O)N[C@@H](CC(C)C)C(=O)N[C@H](C(=O)N[C@H](C(=O)NCC(=O)N[C@@H](CC(C)C)C(=O)N1CCC[C@H]1C(=O)N[C@@H](C)C(=O)N[C@@H](CC(C)C)C(=O)N[C@H](C(=O)N[C@@H](CO)C(=O)N[C@@H](Cc1c[nH]c2ccccc12)C(=O)N[C@H](C(=O)N[C@@H](CCCCN)C(=O)N[C@@H](CCCNC(=N)N)C(=O)N[C@@H](CCCCN)C(=O)N[C@@H](CCCNC(=N)N)C(=O)N[C@@H](CCC(N)=O)C(=O)N[C@@H](CCC(N)=O)C(N)=O)[C@@H](C)CC)[C@@H](C)CC)[C@@H](C)O)[C@@H](C)O)C(C)C)C(C)C [Melittin]
effect on rotatory response to apamin (0.25 mg/kg apamin and 0.75 mg/kg melittin): potentiated
atypical motor behaviors that apamin usually induces [1]: mild to absence
onset of contralateral rotations [1]: faster onset
Atypical Motor Behaviors [2]: None
Rotational Response Contralateral [2]: 10 number of turns in 12 hours
Rotational Response Ipsilateral [2]: 45 to 50 number of turns in 12 hours
ability similar to apamin to induce a conspicuous turning response (apitoxin component given alone): none
effect on onset of rotational action of apamin: significantly hasten
rotational response (melittin alone 0.5 to 10 mg/kg i.p., contralateral more frequent than ipsilateral): modest, intermittent rotational response

CC(N)Cc1ccccc1 (centres unmarked) [amphetamine, reference compound]
effect on apamin-induced ipsilateral rotation (amphetamine co-administration at less than the standard dose of 0.05 mg/kg i.p.): mildly potentiate

NCCc1c[nH]cn1 [histamine, Histamine, reference compound]
ability similar to apamin to induce a conspicuous turning response (rat, in vivo): none

N[C@@H](Cc1ccc(O)c(O)c1)C(=O)O [levodopa, reference compound]
effect on apamin-induced contralateral rotations (levodopa co-administration at less than standard dose, 5 mg/kg i.p.): mildly potentiate

HTGAVLAGV [HTGAVLAGV, reference compound]
Atypical Motor Behaviors (HTGAVLAGV alone, 1-10 mg/kg): None

Hyaluronidase
effect on atypical motor behaviors induced by apamin (1.0 mg/kg apamin and 20 mg/kg hyaluronidase): reduced
Atypical Motor Behaviors [3]: None
Rotational Response Contralateral [3]: 5 number of turns in 12 hours
Rotational Response Ipsilateral [3]: 40 number of turns in 12 hours
ability similar to apamin to induce a conspicuous turning response (apitoxin component given alone): none
effect on ipsilateral turning behavior induced by apamin (hyaluronidase 5 to 20 mg/kg i.p. with apamin 0.1 to 1.0 mg/kg): mildly potentiated
turning (hyaluronidase given alone, 0.5 to 30 mg/kg i.p.): did not induce turning
effect on atypical motor behaviors observed with higher doses of apamin (hyaluronidase with apamin, vs apamin given alone): decreased

Mast Cell Degranulating Peptide (IKCNCKRHVIKPHICRKICGKN; ends and bridges not checked; cysteine pairing not given here; UniProt P01499 28-49, looked up) [apitoxin component, GenScript #RP10663, reference compound]
ability similar to apamin to induce a conspicuous turning response (apitoxin component given alone): none

Phospholipase A-2 [Phospholipase A2]
effect on rotatory response to apamin (0.5 mg/kg apamin and 5 mg/kg PLA-2): potentiated
duration of ipsilateral rotations [4]: about 4 hours
rotational response [4]: induced ipsilateral rotations
start of ipsilateral rotations after administration [4]: 1 to 4 h
Atypical Motor Behaviors (PL-A2 given alone): No atypical motor behaviors were observed
motor response (PL-A2 given alone, 1 mg/kg i.p.): minimal squirming response
effect on onset of turning behavior (PLA-2 given with apamine): accelerated
effect on turning behavior (PLA-2 given with apamine): moderately potentiated
Atypical Motor Behaviors [5]: None
Rotational Response Contralateral [5]: 10 number of turns in 12 hours
Rotational Response Ipsilateral [5]: 50 to 60 number of turns in 12 hours
ability similar to apamin to induce a conspicuous turning response (apitoxin component given alone): none
effect on onset of rotational action of apamin: significantly hasten

Secapin [reference compound]
Atypical Motor Behaviors (Secapin alone, 1-20 mg/kg): None
Rotational Response Contralateral (Secapin alone, 1-20 mg/kg): 5 number of turns in 12 hours
Rotational Response Ipsilateral (Secapin alone, 1-20 mg/kg): 40 number of turns in 12 hours
rotational behavior above baseline (spontaneous rotation) (Secapin at 1 to 20 mg/kg): little or no rotational behavior
ability similar to apamin to induce a conspicuous turning response (apitoxin component given alone): none

Tertiapin (ALCNCNRIIIPHMCWKKCGKK; UniProt P56587 1-21, looked up) [apitoxin component, Sigma-Aldrich #T8316, reference compound]
Atypical Motor Behaviors (Tertiapin alone, 1 and 3 mg/kg): None
Rotational Response Contralateral (Tertiapin alone, 1 and 3 mg/kg): 5 number of turns in 12 hours
Rotational Response Ipsilateral (Tertiapin alone, 1 and 3 mg/kg): 40 number of turns in 12 hours
rotational behavior above baseline (spontaneous rotation) (Tertiapin at 1 and 3 mg/kg): little or no rotational behavior
ability similar to apamin to induce a conspicuous turning response (apitoxin component given alone): none
